Our source for the Ki values is patent US5773226A, “Recombinant calf intestinal alkaline phosphatase” (La Jolla Cancer Research Foundation, priority 1995, dated 1998).

The target in assay [1] is T1, recombinant calf intestinal alkaline phosphatase (b.IAP), expressed in CHO cells, SEQ ID NO: 10 (Bos taurus, UniProt P19111).
T1 construct: codes for a peptide of 533 amino acids in length; made in house; host or cells: Chinese hamster ovary (CHO) cells, ATCC No. CCL61
Description: Kinetic parameters (Km, Ki for L-Phe) of recombinant calf IAP. Format: biochemical, calf (bovine). As to conditions: recombinant enzyme; read-out: K1 for L-Phe. How it is done:
(§1) Values for Km and Kl for L-Phe were determined for the recombinant enzyme as well as for purified protein from calf intestine as described in Hummer and Millan, supra, and Wilkinson, Biochem. J. 8:324-332 (1961), incorporated herein by reference.

Assay [2] addresses purified calf intestinal alkaline phosphatase (b.IAP) from natural sources (calf intestine). Put plainly: Kinetic parameters (Km, Ki for L-Phe) of purified natural calf IAP. Format: biochemical, calf (bovine). Conditions: purified natural enzyme; read-out: K1 for L-Phe. The method, then:
as §1

The structures appear in SMILES notation.

T1 sequence (P19111 20-506 limits assumed): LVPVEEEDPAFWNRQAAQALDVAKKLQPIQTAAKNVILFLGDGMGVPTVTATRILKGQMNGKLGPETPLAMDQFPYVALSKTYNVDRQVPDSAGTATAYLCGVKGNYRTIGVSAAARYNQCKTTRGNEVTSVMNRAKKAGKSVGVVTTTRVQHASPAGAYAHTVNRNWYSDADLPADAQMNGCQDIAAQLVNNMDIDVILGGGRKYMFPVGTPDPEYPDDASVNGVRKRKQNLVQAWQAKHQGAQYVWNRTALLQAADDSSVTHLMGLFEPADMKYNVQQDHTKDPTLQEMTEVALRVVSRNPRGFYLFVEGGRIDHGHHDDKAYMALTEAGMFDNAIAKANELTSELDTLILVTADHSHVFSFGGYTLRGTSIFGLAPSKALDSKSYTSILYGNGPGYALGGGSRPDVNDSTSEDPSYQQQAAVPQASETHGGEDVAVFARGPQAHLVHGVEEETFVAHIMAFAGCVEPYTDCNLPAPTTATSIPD

For `N[C@@H](Cc1ccccc1)C(=O)O` [L-Phe], the Ki amounted to 15.2 ± 1.8 mM in assay [1] and 11.2 ± 1 mM in assay [2].
